These results are taken from patent US20230406831A1, “COMPOUNDS AND METHODS OF INHIBITING BACTERIAL CHAPERONIN SYSTEMS” (THE TRUSTEES OF INDIANA UNIVERSITY, priority 2020, published 2023).

Read-outs that look alike come from different tables or passages of the source.

For one assay, the target named is T1, native MDH (Sus scrofa, UniProt P00346).
T1 construct: soluble pig heart MDH from Roche, product #10127248001; purchased Roche 10127248001; host or cells: pig heart
T1 sequence (P00346 25-338): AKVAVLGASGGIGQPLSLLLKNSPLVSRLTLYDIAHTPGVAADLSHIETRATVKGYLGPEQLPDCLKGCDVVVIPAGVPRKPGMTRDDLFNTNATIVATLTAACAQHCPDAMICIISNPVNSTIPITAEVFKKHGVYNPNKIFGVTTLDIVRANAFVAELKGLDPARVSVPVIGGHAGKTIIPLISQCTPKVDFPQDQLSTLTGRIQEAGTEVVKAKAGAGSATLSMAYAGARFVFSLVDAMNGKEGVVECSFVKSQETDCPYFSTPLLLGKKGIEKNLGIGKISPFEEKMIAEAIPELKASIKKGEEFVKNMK
Briefly: Native MDH enzymatic activity counter-screen. The class given is biochemical, pig. The settings on record: compounds added after refolding and EDTA quench, read-out: Biochemical Assay IC50 Native MDH Activity. On the procedure: Counter-screening compounds for inhibition of native MDH enzymatic activity.
Reagent Preparations & Assay Protocol: This assay was performed as described above for the GroEL/ES-dMDH refolding assay; however, the assay protocol differed in the sequence of compound addition to the assay plates. The refolding reactions were allowed to proceed for 45 min at 37° C. in the absence of test compounds (complete refolding of MDH occurs), then quenched with the EDTA stock. Compounds were then pin-transferred into the plates after the EDTA quenching step; thus, compounds effects are only possible by inhibiting the fully-refolded MDH reporter substrate. Next enzymatic activity of the refolded MDH was initiated by addition of 20 μL MDH enzymatic assay stock (20 mM sodium mesoxalate and 2.4 mM NADH in reaction buffer, 50 mM Tris pH 7.4, 50 mM KCl, 1 mM DTT), and followed by measuring the NADH absorbance in each well at 340 nm using a Molecular Devices SpectraMax Plus384 microplate reader
A340 nm measurements were recorded at 0.5 minutes (start point) and at successive time points until the amount of NADH consumed reached ˜90% (end point, generally between 20-35 minutes). Compounds were tested in 8-point, 3-fold dilution series (62.5 μM to 29 nM during the reporter reaction) in clear, flat-bottom 384-well microtiter plates.
DMSO was used as a negative control, and previously discovered native MDH inhibitors were used as positive controls. IC50 values for the test compounds were obtained by plotting the % inhibition results in GraphPad Prism 6 and analyzing by non-linear regression using the log (inhibitor) vs. response (variable slope) equation. Results presented represent the averages of IC50 values obtained from at least quadriplicate (duplicate of duplicate) replicates.

The target in the next assay is T2, GroEL/ES (Escherichia coli, UniProt P0A6F5).
T2 construct: made in house; host or cells: GroEL in E. coli DH5a; GroES in E. coli BL21 (DE3)
T2 sequence (P0A6F5 2-548): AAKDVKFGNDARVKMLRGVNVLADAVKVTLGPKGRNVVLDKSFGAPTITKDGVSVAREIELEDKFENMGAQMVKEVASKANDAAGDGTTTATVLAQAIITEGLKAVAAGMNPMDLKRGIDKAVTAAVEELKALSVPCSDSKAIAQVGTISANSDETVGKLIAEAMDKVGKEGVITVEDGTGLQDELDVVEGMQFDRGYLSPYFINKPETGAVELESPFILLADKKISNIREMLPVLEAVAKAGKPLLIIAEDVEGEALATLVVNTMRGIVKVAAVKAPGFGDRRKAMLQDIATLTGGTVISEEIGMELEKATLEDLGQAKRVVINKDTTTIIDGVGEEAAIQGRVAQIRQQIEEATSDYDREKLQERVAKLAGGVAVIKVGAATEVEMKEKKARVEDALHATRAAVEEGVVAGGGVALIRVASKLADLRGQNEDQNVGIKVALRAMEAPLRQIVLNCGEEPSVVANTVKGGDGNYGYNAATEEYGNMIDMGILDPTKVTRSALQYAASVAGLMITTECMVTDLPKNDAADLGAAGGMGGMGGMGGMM
Description: GroEL/ES-mediated dMDH refolding assay. Type of assay: biochemical, E. coli. The protocol: Evaluation of compounds ability to inhibit GroEL/ES and HSP60/10-mediated dMDH refolding assays.
Reagent preparation: For these assays, four primary reagent stocks were prepared: 1) GroEL/ES-dMDH or HSP60/10-dMDH binary complex stock; 2) ATP initiation stock; 3) EDTA quench stock; 4) MDH enzymatic assay stock. Denatured MDH (dMDH) was prepared by 2-fold dilution of MDH (5 mg/ml, soluble pig heart MDH from Roche, product #10127248001) with denaturant buffer (7 M guanidine-HCl, 200 mM Tris, pH 7.4, and 50 mM DTT). MDH was completely denatured by incubating at room temperature for 45 min. The binary complex solutions were prepared by slowly adding the dMDH stock to a stirring stock with GroEL (or HSP60) in folding buffer (50 mM Tris-HCl, pH 7.4, 50 mM KCl, 10 mM MglC2, and 1 mM DTT), followed by addition of GroES (or HSP10). The binary complex stocks were prepared immediately prior to dispensing into the assay plates and had final protein concentrations of 83.3 nM GroEL (Mr 800 kDa) or HSP60 (Mr 400 kDa), 100 nM GroES or HSP10 (Mr 70 kDa), and 20 nM dMDH in folding buffer. For the ATP initiation stock, ATP solid was diluted into folding buffer to a final concentration of 2.5 mM. Quench solution contained 600 mM EDTA (pH 8.0). The MDH enzymatic assay stock consisted of 20 mM sodium mesoxalate and 2.4 mM NADH in reaction buffer (50 mM Tris-HCl, pH 7.4, 50 mM KC1, and 1 mM DTT).
Assay Protocol: First, 30 μL aliquots of the GroEL/ES-dMDH or HSP60/10-dMDH binary complex stocks were dispensed into clear, 384-well polystyrene plates. Next, 0.5 μL of the compound stocks (10 mM to 4.6 μM, 3-fold dilutions series in DMSO) were added by pin-transfer (V&P Scientific). The chaperonin-mediated refolding cycles were initiated by addition of 20 IA of ATP stock (reagent concentrations during refolding cycle: 50 nM GroEL or HSP60, 60 nM GroES or HSP10, 12 nM dMDH, 1 mM ATP, and compounds of 100 μM to 46 nM, 3-fold dilution series). The refolding reactions were incubated at 37° C. The incubation time was determined from refolding time-course control experiments until they reached ˜90% completion of refolding cycle — generally ˜20-40 min for GroEL/ES, and ˜40-60 min for HSP60/10). Next, the assay was quenched by addition of 10 μL of the EDTA to final concentration of 100 mM. […] A340 nm measurements were recorded at 0.5 minutes (start point) and at successive time points until the amount of NADH consumed reached ˜90% (end point, generally between 20-35 minutes). The differences between the start and end point A340 values were used to calculate the % inhibition of the GroEL/ES or HSP60/10 machinery by the compounds. IC50 values for the test compounds were obtained by plotting the % inhibition results in GraphPad Prism 6 and analyzing by non-linear regression using the log (inhibitor) vs. response (variable slope) equation. Results presented represent the averages of IC50 values obtained from at least quadriplicate (duplicate of duplicate) replicates. For results, see Tables 1, 2, and 3.

Take `Cc1cc(C(C#N)c2ccc(Cl)cc2)c(Cl)cc1NC(=O)c1cc(I)cc(I)c1O` (stereo not drawn) [Closantel, reference compound]: at native MDH (Table 1), the IC50 stood at 6 µM.

For the compound `O=C(Nc1ccc(Sc2nc3ccccc3s2)c(Cl)c1)c1cc(Br)cc(Br)c1O` [Compound 1, reference compound], the IC50 on native MDH (Table 1) amounted to 6.3 µM; at GroEL/ES, 2 µM.

`COc1c(Br)cc(Br)cc1C(=O)Nc1cc(Cl)c(C(C#N)c2ccc(Cl)cc2)cc1C` (stereo not drawn) [Compound 45, 3,5-dibromo-N-(5-chloro-4-((4-chlorophenyl)(cyano)methyl)-2-methylphenyl)-2-methoxybenzamide]: the IC50 on native MDH (Table 2) is greater than 63 µM; at GroEL/ES, 30 µM.

`Cc1cc(C(C#N)c2ccc(Cl)cc2)c(Cl)cc1NC(=O)c1cc(Br)cc(Br)c1O` (stereo not drawn) [Compound 46, 3,5-dibromo-N-(5-chloro-4-((4-chlorophenyl)(cyano)methyl)-2-methylphenyl)-2-hydroxybenzamide]: the results for the IC50 on native MDH (Table 2) and at GroEL/ES were 2.3 µM and 1.9 µM, respectively.

For the compound `COc1c(Br)cccc1C(=O)Nc1cc(Cl)c(C(C#N)c2ccc(Cl)cc2)cc1C` (stereo not drawn) [Compound 47, 3-bromo-N-(5-chloro-4-((4-chlorophenyl)(cyano)methyl)-2-methylphenyl)-2-methoxybenzamide], the IC50 was greater than 63 µM at native MDH (Table 2) and 49 µM at GroEL/ES.

`Cc1cc(C(C#N)c2ccc(Cl)cc2)c(Cl)cc1NC(=O)c1cccc(Br)c1O` (stereo not drawn) [Compound 48, 3-bromo-N-(5-chloro-4-((4-chlorophenyl)(cyano)methyl)-2-methylphenyl)-2-hydroxybenzamide]: the IC50 on native MDH (Table 2) worked out at 48 µM; at GroEL/ES it was 12 µM.

As for `COc1ccc(Br)cc1C(=O)Nc1cc(Cl)c(C(C#N)c2ccc(Cl)cc2)cc1C` (stereo not drawn) [Compound 49, 5-bromo-N-(5-chloro-4-((4-chlorophenyl)(cyano)methyl)-2-methylphenyl)-2-methoxybenzamide], the values for the IC50 at native MDH (Table 2) and at GroEL/ES were greater than 63 µM and 71 µM, respectively.

Regarding `Cc1cc(C(C#N)c2ccc(Cl)cc2)c(Cl)cc1NC(=O)c1cc(Br)ccc1O` (stereo not drawn) [Compound 50, 5-bromo-N-(5-chloro-4-((4-chlorophenyl)(cyano)methyl)-2-methylphenyl)-2-hydroxybenzamide], the IC50 on native MDH (Table 2) turned out to be 55 µM; at GroEL/ES it was 23 µM.

For `COc1c(Cl)cc(Cl)cc1C(=O)Nc1cc(Cl)c(C(C#N)c2ccc(Cl)cc2)cc1C` (stereo not drawn) [Compound 51, 3,5-dichloro-N-(5-chloro-4-((4-chlorophenyl)(cyano)methyl)-2-methylphenyl)-2-methoxybenzamide], the results for the IC50 at native MDH (Table 2) and at GroEL/ES were greater than 63 µM and 38 µM, respectively.

As for `Cc1cc(C(C#N)c2ccc(Cl)cc2)c(Cl)cc1NC(=O)c1cc(Cl)cc(Cl)c1O` (stereo not drawn) [Compound 52, 3,5-dichloro-N-(5-chloro-4-((4-chlorophenyl)(cyano)methyl)-2-methylphenyl)-2-hydroxybenzamide], the IC50 on native MDH (Table 2) was determined as 5.5 µM; against GroEL/ES, 3.7 µM.

`COc1c(Cl)cccc1C(=O)Nc1cc(Cl)c(C(C#N)c2ccc(Cl)cc2)cc1C` (stereo not drawn) [Compound 53, 3-chloro-N-(5-chloro-4-((4-chlorophenyl)(cyano)methyl)-2-methylphenyl)-2-methoxybenzamide]: the IC50 on native MDH (Table 2) is greater than 63 µM; on GroEL/ES, 81 µM.

In the case of `Cc1cc(C(C#N)c2ccc(Cl)cc2)c(Cl)cc1NC(=O)c1cccc(Cl)c1O` (stereo not drawn) [Compound 54, 3-chloro-N-(5-chloro-4-((4-chlorophenyl)(cyano)methyl)-2-methylphenyl)-2-hydroxybenzamide], the values for the half-inhibitory concentration (IC50) on native MDH (Table 2) and at GroEL/ES were 57 µM and 14 µM, respectively.

For `COc1cc(Cl)ccc1C(=O)Nc1cc(Cl)c(C(C#N)c2ccc(Cl)cc2)cc1C` (stereo not drawn) [Compound 55, 4-chloro-N-(5-chloro-4-((4-chlorophenyl)(cyano)methyl)-2-methylphenyl)-2-methoxybenzamide], the values for the IC50 at native MDH (Table 2) and against GroEL/ES were greater than 63 µM and 59 µM, respectively.

On to `Cc1cc(C(C#N)c2ccc(Cl)cc2)c(Cl)cc1NC(=O)c1ccc(Cl)cc1O` (stereo not drawn) [Compound 56, 4-chloro-N-(5-chloro-4-((4-chlorophenyl)(cyano)methyl)-2-methylphenyl)-2-hydroxybenzamide], for which the IC50 at native MDH (Table 2) is 59 µM; against GroEL/ES, 57 µM.

As for `COc1ccc(Cl)cc1C(=O)Nc1cc(Cl)c(C(C#N)c2ccc(Cl)cc2)cc1C` (stereo not drawn) [Compound 57, 5-chloro-N-(5-chloro-4-((4-chlorophenyl)(cyano)methyl)-2-methylphenyl)-2-methoxybenzamide], the 50% inhibitory concentration (IC50) on native MDH (Table 2) is greater than 63 µM; on native MDH (Table 3), greater than 63 µM; on GroEL/ES it was 59 µM.

Consider `Cc1cc(C(C#N)c2ccc(Cl)cc2)c(Cl)cc1NC(=O)c1cc(Cl)ccc1O` (stereo not drawn) [Compound 58, 5-chloro-N-(5-chloro-4-((4-chlorophenyl)(cyano)methyl)-2-methylphenyl)-2-hydroxybenzamide], for which the IC50 at native MDH (Table 2) was greater than 63 µM; at native MDH (Table 3), greater than 63 µM; on GroEL/ES, 24 µM.

As to `COc1ccc(C)cc1C(=O)Nc1cc(Cl)c(C(C#N)c2ccc(Cl)cc2)cc1C` (stereo not drawn) [Compound 59, N-(5-chloro-4-((4-chlorophenyl)(cyano)methyl)-2-methylphenyl)-2-methoxy-5-methylbenzamide], the 50% inhibitory concentration (IC50) is greater than 63 µM on native MDH (Table 2) and 86 µM against GroEL/ES.

As for `Cc1ccc(O)c(C(=O)Nc2cc(Cl)c(C(C#N)c3ccc(Cl)cc3)cc2C)c1` (stereo not drawn) [Compound 60, N-(5-chloro-4-((4-chlorophenyl)(cyano)methyl)-2-methylphenyl)-2-hydroxy-5-methylbenzamide], the values for the IC50 at native MDH (Table 2) and against GroEL/ES were greater than 63 µM and 41 µM, respectively.

Take `COc1ccccc1C(=O)Nc1cc(Cl)c(C(C#N)c2ccc(Cl)cc2)cc1C` (stereo not drawn) [Compound 61, N-(5-chloro-4-((4-chlorophenyl)(cyano)methyl)-2-methylphenyl)-2-methoxybenzamide]: the concentration for half-maximal inhibition (IC50) at native MDH (Table 2) was greater than 63 µM; on GroEL/ES, 72 µM.

The IC50 is the midpoint of a concentration-inhibition curve.
